From patent publication EP0431741A2, “Substituted pyrimidineamino compounds” (Beecham Group p.l.c., priority 1989, dated 1991) come the findings set out here.

For one test, the system named is trachea. Description: Bronchodilator activity: relaxation of isolated tracheal spirals, relative to isoprenaline maximum. Type of test: cell-based, guinea pigs. To be noted: result in words; no value given. The method, then:
Male guinea pigs (300-600g) were stunned by a blow to the head and bled from the carotid artery. The trachea was exposed, dissected free of connective tissue, and transferred to oxygenated Krebs solution at 37 °C. Next, spirals (2 per trachea) were prepared by cutting the whole trachea spirally along its longitudinal axis and then dividing this spiral lengthwise. Each preparation was mounted, using silk thread, in a 10ml organ bath filled with Krebs solution at 37 °C and bubbled with 5% CO₂ with O₂. The resting tension of the preparations was set at 2g and changes in muscle tension were monitored isometrically by means of a UFI (2oz) force and displacement transducer (Ormed Ltd) connected to a Linseis pen recorder. All preparations were allowed to equilibrate for 60 minutes. During this equilibration period the preparations were washed by upward displacement at 15 minute intervals and, if necessary, the resting tension was readjusted to 2g using a mechanical micromanipulator system.
Once a steady resting tension had been obtained, the preparations were dosed simultaneously with the test compound (10⁻⁸-2x10⁻⁵M), and finally a maximum relaxation achieved by addition of 10⁻³M isoprenaline. The fall in tension evoked by the test compound was expressed as a percentage of the total relaxation evoked in the presence of 10⁻³ isoprenaline. […]

For test [1], the system named is Spontaneously hypertensive rats. Description: Antihypertensive activity: systolic blood pressure by tail cuff method. Type of test: in vivo. As to conditions: for active in test 1. (Antihypertensive Activity): result in words, no dose given; for b.p. lower/dose: systolic blood pressure, spontaneously hypertensive rats. Here is the method:
Systolic blood pressures were recorded by a modification of the tail cuff method described by I.M. Claxton, M.G. Palfreyman, R.H. Poyser, R.L. Whiting, European Journal of Pharmacology, 37, 179 (1976). A W+W BP recorder, model 8005 was used to display pulses. Prior to all measurements rats were placed in a heated environment (33.5 ± 0.5 °C) before transfer to a restraining cage. Each determination of blood pressure was the mean of at least 5 readings. Spontaneously hypertensive rats (ages 12-18 weeks) with systolic blood pressures >180 mmHg were considered hypertensive.

For `CC1(C)Oc2ccc(C#N)cc2[C@@H](Nc2cc(N)ncn2)[C@@H]1O` (racemic) [Example 3], the “active in test 2. (Bronchodilator Activity)” value in the test with trachea was “active”. In addition, in test [1], the “active in test 1. (Antihypertensive Activity)” value is reported as “active”.

On to `CNc1cc(N[C@@H]2c3cc(C#N)ccc3OC(C)(C)[C@H]2O)ncn1` (racemic) [Example 2], for which the “active in test 2. (Bronchodilator Activity)” value in the test with trachea is listed as “active”. Further, in test [1], the “active in test 1. (Antihypertensive Activity)” value was “active”.

Take `CC1(C)Oc2ccc(C#N)cc2[C@@H](Nc2cc(Cl)ncn2)[C@@H]1O` (racemic) [El, Trans-6-cyano-4-[(6-chloropyrimidin-4-yl)amino]-3,4-dihydro-2,2-dimethyl-2H-1-benzopyran-3-ol]: the b.p. lower/dose in test [1] (dose 0.15mgkg⁻¹) stood at 38%/0.15mgkg⁻¹; in test [1] (dose 0.3mgkg⁻¹) it was 36%/0.3mgkg⁻¹.
